Measurements from PMC5121622, “Cytotoxic and genotoxic potential of food-borne nitriles in a liver in vitro model” (Scientific Reports, 2016).
“Also recorded” adds a separate entry of the source. Where two headings read alike, the source gives them in different places.

Columns and labels:
[1] = tested on: human liver cancer (HepG2) cells; experiment: WST-1 cytotoxicity assay in HepG2 cells; type: cell-based; conditions: for IC50: HepG2, 72 h treatment, WST-1 assay; for change in cell viability: HepG2, 72 h, 0.3 to 30 mM
Protocol: (§1) HepG2 cells were purchased from the German Collection of Microorganisms and Cell Cultures (DSMZ, Braunschweig, Germany). HepG2 cells which constitutively express human CYP2E1 (E47 cells, HepG2-CYP2E1) and control HepG2 cells transfected with empty vector (C34 cells, HepG2- vector), originally established by Wu and Cederbaum[27], were kindly provided by C. Hellerbrand (University Medical Center Regensburg, Germany). The cells were cultured in low glucose Dulbecco’s modified eagle medium supplemented with 15% fetal calf serum and 1% Pen/Strep in an atmosphere with 5% CO2 at 37 °C and 95% air humidity.
(§2) Cytotoxicity was determined with the WST-1 assay (Roche Diagnostics Deutschland GmbH, Mannheim, Germany). The assay is based on the ability of viable cells to cleave the tetrazolium salt WST-1 to formazan by their mitochondrial succinate-tetrazolium-reductase system. Cells were cultured at an initial density of 5000 cells/well in 96-well plates for 48 h. Then, cells were treated with the nitriles (0.3 to 30 mM, solved in distilled water) for 72 h. As positive control, 0.01% Triton X-100 was used. Following compound exposure and incubation, the WST 1 assay was performed according to the manufacturer’s instructions.
The median growth inhibitory concentration (IC50) for compound cytotoxicity was calculated using Graphpad Prism 5.0 software (La Jolla, CA). After logarithmic transformation, IC50 values were calculated with equation 1: […]

[2] = tested on: HepG2 cells; parameters: method as in Lamy et al. (2009); conditions: HepG2, Comet assay and micronucleus test; ref Lamy et al. (2009); cited from earlier work
[3] = tested on: primary murine hepatocytes; experiment: WST-1 cell viability in primary murine hepatocytes; type: cell-based, mouse; conditions: 72 h
Protocol: Murine hepatocytes were obtained from 8–16 week-old, male C57BL6 mice (Charles River Laboratory, Sulzfeld, Germany) as described elsewhere. The institutional and national guidelines for the care and use of animals were followed, and all experimental procedures were approved by the institutional Animal Care and Use Committee at the University of Freiburg according to § 8.I of the Animal Welfare Act. 2–2.2 × 10^5 cells were plated in 24 well plates. The cells were left undisturbed for 4 h in a 5% CO2 atmosphere at 37 °C and then the medium was changed to serum free Williams’ Medium E supplemented with 100 nM dexamethasone. Within 24 h the cells were exposed to the test compounds and controls for 72 h.
as §2

[4] = tested on: HepG2 cells; experiment: Comet assay (DNA strand breaks) in HepG2 cells; type: cell-based, human; conditions: HepG2, 24 h; for concentration with significant increase in DNA strand breaks: Olive Tail Moment and percent tail DNA
Protocol: (§3) The single cell gel electrophoresis assay also known as Comet assay was carried out as described earlier with slight modifications. The percent tail DNA and the Olive Tail Moment (OTM) were calculated as indicators of DNA damage. For each sample, 102 systematically screened cells were evaluated. Briefly, HepG2 cells were seeded onto well plates. After 48 h of growth, the cells were exposed to the nitriles or ITC for 24 h. As positive control 50 μM B(α)P and as solvent control distilled water or 0.1% DMSO was used. To analyze the repair capacity of HepG2 cells, the test substances were removed after 24 h and incubated for another 24 h before the assay was terminated.

[5] = tested on: HepG2-CYP2E1 cells; experiment: WST-1 cytotoxicity assay in CYP2E1-overexpressing HepG2 cells versus vector control cells; type: cell-based, human; conditions: 10 mM, 72 h
Protocol: as §1, §2

[6] = tested on: quinone reductase; conditions: cited from earlier work
[7] = tested on: activated human T lymphocytes; parameters: method as in PMID 27161402; conditions: cited from earlier work
[8] = tested on: HepG2-CYP2E1 cells; experiment: Comet assay in CYP2E1 transfected HepG2 and vector cells; type: cell-based, human; conditions: 24 h
Protocol: as §1, §3

[9] = tested on: UM-2BB cells; parameters: method as in Lui et al. (2003); conditions: MTT-assay, ref Lui et al. (2003); cited from earlier work
[10] = tested on: Hepa1c1c7 cells; conditions: Hepa1c1c7, 5 mM, 72 h; cited from earlier work
[11] = Homo sapiens, read-out: IC50 (median growth inhibitory concentration)

For `N#CCCc1ccccc1` [2-phenylethyl-CN, 3-phenylpropanenitrile], the IC50 [1, 11] was 18.2 mM.
`CSCCCC#N` [3-MTP-CN, 4-(methylthio)butylnitrile] gave an IC50 [1, 11] of 19.5 mM.
For `CSCCCN=C=S` [3-MTP-ITC, 3-(methylthio)propyl ITC], the “concentration inducing DNA damage and mutagenicity” value [2] is listed as “exceeding 1 μM”.
In the case of `C=CCCC#N` [3-but-CN, 4-pentenenitrile], the viability of hepatocytes [3] is reported as “significantly decreased the viability of hepatocytes in a concentration-dependent manner” and the “change in cell viability” value [1] is reported as “did not result in significant changes in cell viability”.
In the case of `CSCCCCC#N` [4-MTB-CN, 5-(methylthio)pentylnitrile], the “DNA strand breaks, concentration dependence” value [4] is reported as “concentration-dependent increase in DNA strand breaks”, the “concentration with significant increase in DNA strand breaks” value [4] is reported as no less than 3 µM and the “concentration at which a viability loss was detected” value [3] is reported as 30000 µM. For the same compound, the “difference in cytotoxicity between CYP2E1-overexpressing and vector control cells” value [5] was “significant difference in cytotoxicity” and the IC50 [1, 11] was 17.9 mM.
For `C=CCCCC#N` [4-pent-CN, 5-hexenenitrile], the “change in cell viability” value [1] was “did not result in significant changes in cell viability”.
For `CSCCCCCC#N` [5-MTP-CN, 6-(methylthio)hexylnitrile], the IC50 [1, 11] was 12.2 mM.
For `CSCCCCCN=C=S` [5-MTP-ITC, 5-(methylthio)pentyl ITC], the “concentration inducing DNA damage and mutagenicity” value [2] is listed as “exceeding 1 μM”.
`CSCCCCCCC#N` [6-MTH-CN, 7-(methylthio)heptylnitrile] gave an IC50 [1, 11] of 8.15 mM.
For `C[S+]([O-])CCCCN=C=S` (centres unmarked) [Sulforaphane, 4-(methylsulfinyl)butyl ITC], the “concentration inducing quinone reductase” value [6] is given as 2.5 µM and the “maximum induction of quinone reductase” value [6] is given as 3.1 fold.
For `C=CCC#N` [allyl-CN, 3-butenenitrile], the viability of hepatocytes [3] was “significantly decreased the viability of hepatocytes in a concentration-dependent manner” and the “change in cell viability” value [1] was “did not result in significant changes in cell viability”.
In the case of `N#CCc1ccccc1` [benzyl-CN, phenylacetonitrile], the “influence on PGE2 release” value ([7]; 1 mM) is given as “did not influence PGE2 release”, the “DNA strand breaks, concentration dependence” value [4] is given as “concentration-dependent increase in DNA strand breaks” and the “DNA damage compared with benzyl ITC” value ([4]; 3 μM) is given as “comparable with the effect of benzyl ITC at the same concentration; also recorded: comparable with the effect of benzyl-ITC in the same concentration”. For the same compound, the “concentration with significant increase in DNA strand breaks” value [4] was no less than 3 µM, the “concentration with significant increment of DNA strand breaks by CYP2E1-overexpression as compared to vector control cells” value [8] was no less than 3 µM and the viability of hepatocytes [3] was “significantly decreased the viability of hepatocytes in a concentration-dependent manner”. The IC50 [1, 11] was 19.9 mM.
For `S=C=NCc1ccccc1` [benzyl-ITC, benzyl ITC, reference compound], the “concentration with strong interference with pro-inflammatory response including PGE2 release” value ([7]; activated human T lymphocytes) is given as no less than 3 µM, the IC50 [9] is given as 0.017 mM and the IC50 ([1]; read-out: IC50) is given as 0.0158 mM. The “cytotoxic potency relative to the nitriles” value ([1]; HepG2, ITC versus corresponding nitrile) was 1000 fold.
For `C=CC(O)CC#N` (centres unmarked) [crambene, 3-hydroxy-4-pentenenitrile], the “cell proliferation diminished by” value [10] is listed as 76% and the “cell viability reduced by” value [10] is listed as 12%.
In the case of `C[S+]([O-])CCCCC#N` (centres unmarked) [sulforaphane nitrile, 5-(methylsulfinyl)pentylnitrile], the “concentration reaching a similar induction of quinone reductase as sulforaphane” value [6] is listed as 2 mM.
